Test results: PMC6240685, “Strong Inhibitory Effect, Low Cytotoxicity and High Plasma Stability of Steroidal Inhibitors of N-Methyl-D-Aspartate Receptors With C-3 Amide Structural Motif” (Frontiers in Pharmacology, 2018)

System: AMPARs
Assay: Inhibition of native AMPAR responses in cultured hippocampal neurons
Type: cell-based, rat
Details: cyclothiazide 10 μM
Protocol: FIGURE 8 The effect of compound 6 on peak and steady-state responses of native NMDARs, AMPARs, and GABARs. (A) Examples of traces obtained from cultured hippocampal neurons. […] Error bars represent SD from five independent measurements. Asterisks mark significance at the level of P < 0.05 (Paired t-test).
FIGURE 9 The effect of compound 6 on native NMDARs, AMPARs, and GABARs. (A) Example of traces obtained from cultured hippocampal neurons. Compound 6 (10 or 30 μM) was co-applied with NMDA (100 μM), AMPA (100 μM), and GABA (5 μM) (duration of agonist and steroid application is indicated by filled and open bars, respectively). […]
Electrophysiological experiments were performed on HEK293 cells transfected with plasmids encoding rat GluN1-1a/GluN2A-D and GFP genes as described previously, ([Petrovic et al., 2005]; [Cais et al., 2008]; [Korinek et al., 2010]) or on primary hippocampal neurons prepared from P0–P1 rats, plated on collagen/poly-D-lysine-coated glass coverslips at a density of ∼50,000 cells/cm^2, and grown in Neurobasal A medium with B27 Supplement (Gibco). […] Agonist-induced responses were low-pass filtered at 2 kHz, digitally sampled at 5 kHz, and analyzed with pClamp software version 10.5 (Molecular Devices). […] Action potentials were recorded in the current-clamp mode from primary hippocampal mass-culture neurons at 14–15 days in vitro. […]

## C[C@@]12CCC[C@H]1[C@@H]1CC[C@@H]3C[C@H](NC(=O)[C@@H](N)CC(=O)O)CC[C@]3(C)[C@H]1CC2 [Compound 6, (S)-3-amino-4-(((3R,5R,8S,9S,10S,13S,14S)-10,13-dimethylhexadecahydro-1H-cyclopenta[a]phenanthren-3-yl)amino)-4-oxobutanoic acid]
AMPA 100 μM
  effect on amplitude of AMPA-induced responses: only little affected
Estimated from single dose (30 μM), Hill coefficient fixed at 1.2, 100 μM AMPA, read-out: IC50 at AMPAR responses (estimate)
  potency estimated from few doses: 276 ± 179 µM
